For one assay, the system named is P. mirabilis 57C0015. The assay can be described thus: In vitro antibacterial MIC, P. mirabilis 57C0015. Format: cell-based. The note with it: Proteus mirabilis. The source says: (§1) The in vitro activity of the herein described compounds renders them useful for topical application in the form of ointments, creams and the like, or for sterilization purposes, e.g., sick-room utensils.
(§2) Table I compares the in vitro profile of 6-[D-2-phenyl-2-(amidinopropionamido)acetamido]penicillanic acid (PAP) with ampicillin (AMP) and carbenicillin (CAR).

In assay [1] the test system is E. coli 51A266. Kind of assay: In vivo protection against experimental E. coli infection in mice (Table II). The note with it: doses 0.5, 4 and 24 hours after inoculation. As to the method:
Table II presents the in vivo comparison data for the three compounds contained in Table I against several experimental infections in mice.
The values (% survivors) are obtained under standard conditions known to those skilled in the art. For the E. coli organism, the test compound is administered to the infected mice by a multiple dosing regimen in which the first dose is given 0.5 hour after inoculation and is repeated 4 and 24 hours later.

A further assay relates to Kleb. penumoniae 53A015. The assay can be described thus: In vitro antibacterial MIC, Kleb. penumoniae 53A015. Format: cell-based. The conditions noted are these: nutrient broth, Table I.
Text: as §1, §2

The next assay concerns gram-negative bacteria. The conditions noted are these: cited from earlier work.
The next assay relates to Ps. aeruginosa 52A104. The assay can be described thus: In vitro antibacterial MIC, Ps. aeruginosa 52A104. The conditions noted are these: Pseudomonas aeruginosa. Format: cell-based.
Text: as §1, §2

Another assay has as its system Ps. aeruginosa 52A490. Kind of assay: In vitro antibacterial MIC, Ps. aeruginosa 52A490. Format: cell-based. The conditions noted are these: Pseudomonas aeruginosa.
Text: as §1, §2

The test system of another assay is Ser. marcescens 63A001. Kind of assay: In vitro antibacterial MIC, Ser. marcescens 63A001. The class given is cell-based. The note with it: Serratia marcescens.
Text: as §1, §2

In assay [2] the test system is E. coli 51A266. Kind of assay: In vivo protection against E. coli infection in mice (Table IV). The note with it: doses 0.5, 4 and 24 hours after inoculation. As to the method: Table IV presents in vivo comparison data for the four compounds in Table III against E. coli infections in mice.
The values, reported as % survivors, are obtained under standard conditions familiar to those skilled in the art. The test compound is administered to the infected mice by a multiple dosing regimen in which the first dose is given 0.5 hour after inoculation and is repeated 4 and 24 hours later.

The subject of the next assay is Kleb. pneumoniae 53A009. The assay can be described thus: In vitro antibacterial MIC, Kleb. pneumoniae 53A009. The note with it: Klebsiella pneumoniae. The class given is cell-based.
Text: as §1, §2

The subject of the next assay is P. mirabiis 57C015. Kind of assay: In vitro antibacterial MIC, P. mirabiis 57C015. The class given is cell-based.
Text: as §1, §2

The subject of the next assay is A. aerogenes. The assay can be described thus: In vitro antibacterial MIC, A. aerogenes. The class given is cell-based. The conditions noted are these: Klebsiella aerogenes.
Text: as §1, §2

The next assay concerns S. aureus 01A005. Kind of assay: In vitro antibacterial MIC, S. aureus 01A005. The note with it: Staphylococcus aureus. Format: cell-based.
Text: as §1, §2

Assay [3] concerns E. coli 51A266. Kind of assay: In vitro antibacterial MIC, E. coli 51A266. Format: cell-based. The conditions noted are these: Escherichia coli.
Text: as §1, §2

The next assay has as its system A. aerogenes 55A002. Kind of assay: In vitro antibacterial MIC, A. aerogenes 55A002. The class given is cell-based. The conditions noted are these: Klebsiella aerogenes, nutrient broth, Table I.
Text: as §1, §2

For the next assay, the system named is E. coli 51A002. The assay can be described thus: In vitro antibacterial MIC, E. coli 51A002. Format: cell-based. The conditions noted are these: Escherichia coli, nutrient broth, Table I.
Text: as §1, §2

Setting [4] is: P. mirabilis 57C0015, nutrient broth, Table I, read-out: MIC.

SMILES strings stand for the structures. Values after ≈ are worked out from the molar mass of the structure shown. Read-outs that look alike come from different tables or passages of the source. Some results are limits rather than exact numbers.

By MIC is commonly meant the lowest concentration that inhibits growth of the organism.

Consider `CC1(C)S[C@@H]2[C@H](NC(=O)C(C(=O)O)c3ccccc3)C(=O)N2[C@H]1C(=O)O` (some centres unmarked) [CAR, carbenicillin], for which the MIC in the assay on P. mirabilis 57C0015 (setting [4]) is 1.25 mg/L (≈ 3.3 µM); with Kleb. penumoniae 53A015 it was above 200 mg/L. For the same molecule, the “% Protection (% survivors)” value with E. coli 51A266 [1] (PO, 50 mg./kg.) is reported as 10%; with E. coli 51A266 [1] (PO, 200 mg./kg.), 70%; with E. coli 51A266 [1] (SC, 50 mg./kg.) it was 90%; with E. coli 51A266 [1] (SC, 200 mg./kg.), 90%.
As to `CC1(C)S[C@@H]2[C@H](NC(=O)C(C(=O)O)c3ccccc3)C(=O)N2[C@H]1C(=O)O` (stereo partly drawn) [α-Carboxybenzylpenicillin], the “utility via oral administration (in words)” value with gram-negative bacteria (oral) was “limited utility via oral administration”. The “efficacy against gram-negative bacteria (in words)” value with gram-negative bacteria (parenteral route) is given as “greater efficacy against gram-negative bacteria”.
For `CC1(C)S[C@@H]2[C@H](NC(=O)C(NC(=O)CNC(=N)c3ccc(Br)cc3)c3ccccc3)C(=O)N2[C@H]1C(=O)O` (some centres unmarked) [X = Br], the MIC amounted to 25 mg/L (≈ 42.5 µM) against Ps. aeruginosa 52A104; 6.25 mg/L (≈ 10.6 µM) in the assay on Ps. aeruginosa 52A490; 6.25 mg/L (≈ 10.6 µM) in the assay on Ser. marcescens 63A001; 12.5 mg/L (≈ 21.2 µM) against Kleb. pneumoniae 53A009; 3.12 mg/L (≈ 5.3 µM) against P. mirabiis 57C015; 3.12 mg/L (≈ 5.3 µM) with A. aerogenes. For the same molecule, the MIC with S. aureus 01A005 and against E. coli 51A266 [3] was 0.39 mg/L (≈ 0.663 µM) throughout. For the same molecule, the “% Survivors” value in the assay on E. coli 51A266 [2] (PO, 25 mg./kg.) is recorded as 10%; with E. coli 51A266 [2] (PO, 50 mg./kg.), 0%; in the assay with E. coli 51A266 [2] (PO, 200 mg./kg.) it was 0%; with E. coli 51A266 [2] (SC, 25 mg./kg.), 50%; with E. coli 51A266 [2] (SC, 50 mg./kg.), 60%; in the assay on E. coli 51A266 [2] (SC, 200 mg./kg.), 90%.
`CC1(C)S[C@@H]2[C@H](NC(=O)C(NC(=O)CNC(=N)c3ccc(F)cc3)c3ccccc3)C(=O)N2[C@H]1C(=O)O` (some centres unmarked) [X = F]: the MIC was determined as 12.5 mg/L (≈ 23.7 µM) against Ps. aeruginosa 52A104; 3.12 mg/L (≈ 5.91 µM) against Ps. aeruginosa 52A490; 6.25 mg/L (≈ 11.8 µM) with Ser. marcescens 63A001; 25 mg/L (≈ 47.4 µM) against Kleb. pneumoniae 53A009; 3.12 mg/L (≈ 5.91 µM) in the assay with P. mirabiis 57C015; 25 mg/L (≈ 47.4 µM) against A. aerogenes. The results for the MIC with S. aureus 01A005 and in the assay on E. coli 51A266 [3] were 0.39 mg/L (≈ 0.739 µM) and 1.56 mg/L (≈ 2.96 µM), respectively. Moreover, the “% Survivors” value with E. coli 51A266 [2] (PO, 25 mg./kg.) was 10%; in the assay on E. coli 51A266 [2] (PO, 50 mg./kg.), 0%; with E. coli 51A266 [2] (PO, 200 mg./kg.), 10%; in the assay on E. coli 51A266 [2] (SC, 25 mg./kg.), 50%; with E. coli 51A266 [2] (SC, 50 mg./kg.), 70%; in the assay with E. coli 51A266 [2] (SC, 200 mg./kg.), 90%.
Consider `CC1(C)S[C@@H]2[C@H](NC(=O)C(NC(=O)CNC(=N)c3ccccc3)c3ccccc3)C(=O)N2[C@H]1C(=O)O` (some centres unmarked) [X = H], for which the MIC was determined as 25 mg/L (≈ 49.1 µM) against Ps. aeruginosa 52A104; 12.5 mg/L (≈ 24.5 µM) against Ps. aeruginosa 52A490; 12.5 mg/L (≈ 24.5 µM) against Ser. marcescens 63A001; 100 mg/L (≈ 196 µM) in the assay on Kleb. pneumoniae 53A009; 12.5 mg/L (≈ 24.5 µM) against P. mirabiis 57C015; 25 mg/L (≈ 49.1 µM) in the assay on A. aerogenes. In addition, the MIC in the assay on S. aureus 01A005 was found to be 0.78 mg/L (≈ 1.53 µM); with E. coli 51A266 [3] it was 12.5 mg/L (≈ 24.5 µM). In addition, the “% Survivors” value in the assay with E. coli 51A266 [2] (PO, 25 mg./kg.) turned out to be 0%; in the assay with E. coli 51A266 [2] (PO, 50 mg./kg.) it was 0%; in the assay with E. coli 51A266 [2] (PO, 200 mg./kg.) it was 10%; in the assay with E. coli 51A266 [2] (SC, 25 mg./kg.) it was 10%; in the assay on E. coli 51A266 [2] (SC, 50 mg./kg.), 70%; in the assay with E. coli 51A266 [2] (SC, 200 mg./kg.), 90%.
As for `CC1(C)S[C@@H]2[C@H](NC(=O)C(NC(=O)CNC(=N)c3ccc(Cl)cc3)c3ccccc3)C(=O)N2[C@H]1C(=O)O` (some centres unmarked) [X = Cl], the MIC against Ps. aeruginosa 52A104 was 25 mg/L (≈ 46 µM); in the assay with Ps. aeruginosa 52A490 it was 12.5 mg/L (≈ 23 µM); against Ser. marcescens 63A001, 6.25 mg/L (≈ 11.5 µM); with Kleb. pneumoniae 53A009 it was 12.5 mg/L (≈ 23 µM); against P. mirabiis 57C015, 3.12 mg/L (≈ 5.73 µM); in the assay with A. aerogenes it was 3.12 mg/L (≈ 5.73 µM). Besides, the figures for the MIC with S. aureus 01A005 and in the assay with E. coli 51A266 [3] were 0.39 mg/L (≈ 0.717 µM) and 0.78 mg/L (≈ 1.43 µM), respectively. Moreover, the “% Survivors” value worked out at 0% with E. coli 51A266 [2] (PO, 25 mg./kg.); 0% with E. coli 51A266 [2] (PO, 50 mg./kg.); 0% with E. coli 51A266 [2] (PO, 200 mg./kg.); 50% with E. coli 51A266 [2] (SC, 25 mg./kg.); 60% in the assay on E. coli 51A266 [2] (SC, 50 mg./kg.); 70% in the assay on E. coli 51A266 [2] (SC, 200 mg./kg.).
Turning to `CC1(C)S[C@@H]2[C@H](NC(=O)[C@H](N)c3ccccc3)C(=O)N2[C@H]1C(=O)O` [AMP, ampicillin], it took 1.56 mg/L (≈ 4.46 µM) to inhibit growth with P. mirabilis 57C0015 (57C0015) (MIC). Also, the “% Protection (% survivors)” value with E. coli 51A266 [1] (PO, 50 mg./kg.) was 80%; with E. coli 51A266 [1] (PO, 200 mg./kg.), 90%; in the assay on E. coli 51A266 [1] (SC, 50 mg./kg.), 80%; in the assay on E. coli 51A266 [1] (SC, 200 mg./kg.) it was 90%.
Consider `CC1(C)S[C@@H]2[C@H](NC(=O)[C@H](NC(=O)CCC(=N)N)c3ccccc3)C(=O)N2[C@H]1C(=O)O` [PAP, 6-[D-2-phenyl-2-(amidinopropionamido)acetamido]penicillanic acid], for which the MIC is 100 mg/L (≈ 223 µM) in the assay on A. aerogenes 55A002, 6.25 mg/L (≈ 14 µM) in the assay on P. mirabilis 57C0015 (setting [4]), 200 mg/L (≈ 447 µM) against E. coli 51A002 and above 200 mg/L with Kleb. penumoniae 53A015. Further, the “% Protection (% survivors)” value in the assay on E. coli 51A266 [1] (PO, 50 mg./kg.) came to 20%; with E. coli 51A266 [1] (PO, 200 mg./kg.), 30%; in the assay on E. coli 51A266 [1] (SC, 50 mg./kg.) it was 80%; in the assay with E. coli 51A266 [1] (SC, 200 mg./kg.), 80%.

The values above are taken from patent publication US4025506A, “Broad spectrum antibiotics” (Pfizer Inc., priority 1975, dated 1977).
